Results reported in publication PMC10724293, “New ruthenium-xanthoxylin complex eliminates colorectal cancer stem cells by targeting the heat shock protein 90 chaperone” (Cell Death & Disease, 2023).
pIC50: −log10 of the molar value. Several values for one entry are separate records, joined by “and”; a condition that tells them apart may be missing. Identical values can stand only once.

Legend:
KG-1a = assay: Alamar blue cytotoxicity assay; type: cell-based, human; conditions: 72 h, read-out: IC50 and 95%CI
Experimental: (§1) The Alamar blue assay was used to determine cell viability as previously described. Cells were seeded into 96-well plates at a density of 7 × 10^3 cells per well for adherent cells or 3 × 10^4 cells per well for suspended cells. The drug was added to each well after 24 h of incubation for adherent cells or immediately for suspended cells and incubated for an additional 72 h. […] Each well received 100 µM resazurin (Sigma-Aldrich Co. St. Louis, MO, United States) four (for cell lines) or 24 (for primary culture) h before the end of the incubation. A SpectraMax 190 Microplate Reader (Molecular Devices, Sunnyvale, CA, USA) was used to measure absorbance at 570 and 600 nm.

MDA-MB-231 = assay: Alamar blue cytotoxicity assay; type: cell-based, human; conditions: 72 h, read-out: IC50 and 95%CI
Experimental: as §1

OVCAR-3 = assay: Alamar blue cytotoxicity assay; type: cell-based, human; conditions: 72 h, read-out: IC50 and 95%CI
Experimental: as §1

NB4 = assay: Alamar blue cytotoxicity assay; type: cell-based, human; conditions: 72 h, read-out: IC50 and 95%CI
Experimental: as §1

K-562 = assay: Alamar blue cytotoxicity assay; type: cell-based, human; conditions: 72 h, read-out: IC50 and 95%CI
Experimental: as §1

SCC-25 = assay: Alamar blue cytotoxicity assay; type: cell-based, human; conditions: 72 h, read-out: IC50 and 95%CI
Experimental: as §1

HL-60 = assay: Alamar blue cytotoxicity assay; type: cell-based, human; conditions: 72 h, read-out: IC50 and 95%CI
Experimental: as §1

H1299 = assay: Alamar blue cytotoxicity assay; type: cell-based, human; conditions: 72 h, read-out: IC50 and 95%CI
Experimental: as §1

HSC-3 = assay: Alamar blue cytotoxicity assay; type: cell-based, human; conditions: 72 h, read-out: IC50 and 95%CI
Experimental: as §1

HepG2 = assay: Alamar blue cytotoxicity assay; type: cell-based, human; conditions: 72 h, read-out: IC50 and 95%CI
Experimental: as §1

SCC-9 = assay: Alamar blue cytotoxicity assay; type: cell-based, human; conditions: 72 h, read-out: IC50 and 95%CI
Experimental: as §1

PANC-1 = assay: Alamar blue cytotoxicity assay; type: cell-based, human; conditions: 72 h, read-out: IC50 and 95%CI
Experimental: as §1

HCT116 = assay: Alamar blue cytotoxicity assay; type: cell-based, human; conditions: 72 h, read-out: IC50 and 95%CI
Experimental: as §1

HCT116 cells = assay: qPCR array of human cancer drug target genes; type: cell-based; set-up: key to RQ, gene BCL2 / RQ, gene IGF1R / RQ, gene KDR / RQ, gene EGFR / RQ, gene CTSB / RQ, gene RHOA / RQ, gene ESR1 / RQ, gene MDM2 / RQ, gene MDM4 / RQ, gene TOP2A / RQ, gene TOP2B / RQ, gene ATF2 / RQ, gene NFKB1 / RQ, gene TP53 / RQ, gene AURKC / RQ, gene CDC25A / RQ, gene CDK1 / RQ, gene CDK2 / RQ, gene CDK5 / RQ, gene CDK8 / RQ, gene NTN3 / RQ, gene HRAS / RQ, gene KRAS: 2^−ΔΔCT relative quantification vs DMSO control (calibrator = 1); conditions: 10 µM, 12 h; CTL = 1.0
Experimental: Total RNA was isolated using the RNeasy Plus Mini Kit (Qiagen; Hilden, Germany) according to the manufacturer’s instructions. The RNA was tested for purity and quantified using a NanoDrop® 1000 spectrophotometer (Thermo Fisher Scientific, Waltham, Massachusetts, USA). The Superscript VILOTM Kit was used for RNA reverse transcription (Invitrogen Corporation; Waltham, MA, USA). TaqMan® array human cancer drug targets 96-well plate, fast (ID RPRWENH, Applied BiosystemsTM, Foster City, CA, USA) was used for gene expression quantification by qPCR. The reactions were carried out in an ABI ViiA7 system (Applied BiosystemsTM).
The cycle conditions were 2 min at 50 °C, 10 min at 95 °C, and 40 cycles of 15 s at 95 °C and 1 min at 60 °C. All experiments were carried out in DNase/RNase-free environments. The 2^−ΔΔCT method was used to calculate the relative quantification (RQ) of mRNA expression using Gene Expression SuiteTM Software (Applied BiosystemsTM), and cells treated with the negative control (0.2% DMSO) served as a calibrator. The RQs of the reference genes HPRT1, TFRC and YWHAZ were used to normalize the reactions.

Q: With cis-[Ru(phen)2(xant)](PF6) [RXC] as the substance, how does the pIC50 (KG-1a) read?
A: Its pIC50 is 5.64.

Q: What about the pIC50 (MDA-MB-231) of the same substance?
A: Its pIC50 is 5.63.

Q: And the pIC50 (OVCAR-3)?
A: Its pIC50 is 5.83.

Q: And the pIC50 (NB4)?
A: Its pIC50 is 5.47.

Q: And the pIC50 (K-562)?
A: Its pIC50 is 5.41.

Q: What about the pIC50 (SCC-25) of the same substance?
A: The pIC50 was 4.99.

Q: What about the pIC50 (HL-60) of the same substance?
A: Its pIC50 is 5.49.

Q: And the pIC50 (H1299)?
A: Its pIC50 is 4.96.

Q: And the pIC50 (HSC-3)?
A: Its pIC50 is 5.32.

Q: And the pIC50 (HepG2)?
A: Its pIC50 is 5.20.

Q: What about the pIC50 (SCC-9) of the same substance?
A: Its pIC50 is 5.55.

Q: And the pIC50 (PANC-1)?
A: The pIC50 was 4.93.

Q: What about the pIC50 (HCT116) of the same substance?
A: Its pIC50 is 5.19.

Q: And the “RQ, gene ABCC1” value (HCT116 cells)?
A: The value was 0.777.

Q: And the “RQ, gene AKT1” value (HCT116 cells)?
A: Its value is 0.624.

Q: What about the “RQ, gene AKT2” value (HCT116 cells) of the same substance?
A: The value was 0.896.

Q: And the “RQ, gene ATF2” value (HCT116 cells)?
A: The value was 0.856.

Q: What about the “RQ, gene AURKA” value (HCT116 cells) of the same substance?
A: The value was 0.343.

Q: What about the “RQ, gene AURKB” value (HCT116 cells) of the same substance?
A: Its value is 0.562.

Q: What about the “RQ, gene AURKC” value (HCT116 cells) of the same substance?
A: The value was 0.498.

Q: And the “RQ, gene BCL2” value (HCT116 cells)?
A: Its value is 0.944.

Q: What about the “RQ, gene BIRC5” value (HCT116 cells) of the same substance?
A: The value was 0.499.

Q: And the “RQ, gene CDC25A” value (HCT116 cells)?
A: Its value is 1.174.

Q: What about the “RQ, gene CDK1” value (HCT116 cells) of the same substance?
A: Its value is 1.021.

Q: And the “RQ, gene CDK2” value (HCT116 cells)?
A: Its value is 1.057.

Q: And the “RQ, gene CDK4” value (HCT116 cells)?
A: The value was 1.065.

Q: And the “RQ, gene CDK5” value (HCT116 cells)?
A: The value was 0.446.

Q: And the “RQ, gene CDK7” value (HCT116 cells)?
A: Its value is 1.621.

Q: And the “RQ, gene CDK8” value (HCT116 cells)?
A: Its value is 0.943.

Q: What about the “RQ, gene CDK9” value (HCT116 cells) of the same substance?
A: The value was 0.986.

Q: And the “RQ, gene CTSB” value (HCT116 cells)?
A: Its value is 1.307.

Q: And the “RQ, gene CTSD” value (HCT116 cells)?
A: The value was 0.826.

Q: What about the “RQ, gene CTSL” value (HCT116 cells) of the same substance?
A: Its value is 1.073.

Q: What about the “RQ, gene CTSS” value (HCT116 cells) of the same substance?
A: Its value is 0.500.

Q: What about the “RQ, gene EGFR” value (HCT116 cells) of the same substance?
A: Its value is 1.135.

Q: And the “RQ, gene ERBB2” value (HCT116 cells)?
A: Its value is 0.312.

Q: And the “RQ, gene ERBB3” value (HCT116 cells)?
A: The value was 0.814.

Q: And the “RQ, gene ESR1” value (HCT116 cells)?
A: Its value is 1.523.

Q: What about the “RQ, gene ESR2” value (HCT116 cells) of the same substance?
A: Its value is 1.673.

Q: What about the “RQ, gene FLT4” value (HCT116 cells) of the same substance?
A: Its value is 3.841.

Q: What about the “RQ, gene GRB2” value (HCT116 cells) of the same substance?
A: The value was 1.220.

Q: And the “RQ, gene GSTP1” value (HCT116 cells)?
A: The value was 0.609.

Q: What about the “RQ, gene HDAC1” value (HCT116 cells) of the same substance?
A: Its value is 0.509.

Q: And the “RQ, gene HDAC2” value (HCT116 cells)?
A: The value was 0.509.

Q: And the “RQ, gene HDAC3” value (HCT116 cells)?
A: Its value is 0.879.

Q: What about the “RQ, gene HDAC4” value (HCT116 cells) of the same substance?
A: Its value is 1.233.

Q: What about the “RQ, gene HDAC6” value (HCT116 cells) of the same substance?
A: Its value is 0.969.

Q: What about the “RQ, gene HDAC7” value (HCT116 cells) of the same substance?
A: The value was 0.975.

Q: And the “RQ, gene HDAC8” value (HCT116 cells)?
A: The value was 0.826.

Q: And the “RQ, gene HDAC11” value (HCT116 cells)?
A: The value was 1.433.

Q: What about the “RQ, gene HIF1A” value (HCT116 cells) of the same substance?
A: Its value is 0.663.

Q: And the “RQ, gene HRAS” value (HCT116 cells)?
A: Its value is 1.867.

Q: And the “RQ, gene HSP90AA1” value (HCT116 cells)?
A: Its value is 0.353 and 0.35.

Q: And the “RQ, gene HSP90B1” value (HCT116 cells)?
A: The value was 0.285 and 0.28.

Q: And the “RQ, gene IGF1R” value (HCT116 cells)?
A: The value was 1.146.

Q: And the “RQ, gene IRF5” value (HCT116 cells)?
A: Its value is 1.472.

Q: And the “RQ, gene KDR” value (HCT116 cells)?
A: Its value is 0.896.

Q: And the “RQ, gene KRAS” value (HCT116 cells)?
A: Its value is 2.847.

Q: And the “RQ, gene MDM2” value (HCT116 cells)?
A: Its value is 2.327.

Q: And the “RQ, gene MDM4” value (HCT116 cells)?
A: Its value is 1.960.

Q: What about the “RQ, gene MTOR” value (HCT116 cells) of the same substance?
A: Its value is 0.595.

Q: What about the “RQ, gene NFKB1” value (HCT116 cells) of the same substance?
A: The value was 1.055.

Q: What about the “RQ, gene NRAS” value (HCT116 cells) of the same substance?
A: Its value is 0.893.

Q: And the “RQ, gene NTN3” value (HCT116 cells)?
A: The value was 2.364.

Q: And the “RQ, gene PARP1” value (HCT116 cells)?
A: The value was 0.485.

Q: And the “RQ, gene PARP4” value (HCT116 cells)?
A: The value was 0.791.

Q: And the “RQ, gene PDGFRB” value (HCT116 cells)?
A: Its value is 2.249.

Q: And the “RQ, gene PIK3C2A” value (HCT116 cells)?
A: The value was 1.177.

Q: What about the “RQ, gene PIK3C3” value (HCT116 cells) of the same substance?
A: The value was 1.485.

Q: What about the “RQ, gene PIK3CA” value (HCT116 cells) of the same substance?
A: The value was 0.956.

Q: And the “RQ, gene PLK1” value (HCT116 cells)?
A: The value was 0.890.

Q: And the “RQ, gene PLK2” value (HCT116 cells)?
A: The value was 1.023.

Q: What about the “RQ, gene PLK3” value (HCT116 cells) of the same substance?
A: The value was 1.749.

Q: What about the “RQ, gene PLK4” value (HCT116 cells) of the same substance?
A: The value was 1.081.

Q: And the “RQ, gene PRKCA” value (HCT116 cells)?
A: Its value is 0.567.

Q: And the “RQ, gene PRKCB” value (HCT116 cells)?
A: The value was 0.993.

Q: And the “RQ, gene PRKCD” value (HCT116 cells)?
A: The value was 1.557.

Q: What about the “RQ, gene PRKCE” value (HCT116 cells) of the same substance?
A: The value was 1.461.

Q: And the “RQ, gene PTGS2” value (HCT116 cells)?
A: The value was 1.461.

Q: What about the “RQ, gene RHOA” value (HCT116 cells) of the same substance?
A: Its value is 0.937.

Q: And the “RQ, gene RHOB” value (HCT116 cells)?
A: The value was 1.762.

Q: And the “RQ, gene TERT” value (HCT116 cells)?
A: The value was 0.866.

Q: What about the “RQ, gene TNKS” value (HCT116 cells) of the same substance?
A: Its value is 2.951.

Q: What about the “RQ, gene TOP2A” value (HCT116 cells) of the same substance?
A: Its value is 0.769.

Q: What about the “RQ, gene TOP2B” value (HCT116 cells) of the same substance?
A: The value was 1.055.

Q: And the “RQ, gene TP53” value (HCT116 cells)?
A: The value was 1.058.

Q: And the “RQ, gene TXN” value (HCT116 cells)?
A: Its value is 1.184.

Q: And the “RQ, gene TXNRD1” value (HCT116 cells)?
A: The value was 3.038.
